The values that follow come from patent US20030134901A1, “Lipoxin compounds and their use in treating cell proliferative disorders” (priority 1993, published 2003).

One assay concerns the target T1, 15-PGDH (Homo sapiens, UniProt P15428).
T1 construct: 100,000 g supernatants prepared from PMA-treated HL-60 cells converted 15-HETE to 15-oxo-ETE; endogenous in cells; host or cells: HL-60 cells treated with PMA (16 nM, 24-72 h); freeze-thaw lysate, 100,000 g supernatant
T1 sequence (P15428 1-266): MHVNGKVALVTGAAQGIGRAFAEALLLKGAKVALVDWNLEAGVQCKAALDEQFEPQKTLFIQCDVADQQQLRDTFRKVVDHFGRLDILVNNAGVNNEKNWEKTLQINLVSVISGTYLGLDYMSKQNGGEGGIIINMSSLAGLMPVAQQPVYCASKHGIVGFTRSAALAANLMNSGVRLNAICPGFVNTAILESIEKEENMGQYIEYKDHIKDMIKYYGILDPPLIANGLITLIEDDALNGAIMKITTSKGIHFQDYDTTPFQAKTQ
To be noted: 15-PGDH of HL-60 cells (Agins et al. 1987); cited from earlier work.

Another assay has as its system A549 cells. Kind of assay: 15-HETE generation by IL-1β-treated A549 cells. Type of assay: cell-based, human. How it is done:
FIG. 3 is a graph showing the relative chiralities of 15-HETE triggered by ASA. A549 cells (10^7 cells per flask) were exposed to IL-1β (1 ng/ml) for 24 h, treated with vehicle (0.1% vol/vol ethanol) (□) or ASA (▪) for 20 min and then incubated (30 min, 37° C.) in HBSS containing arachidonic acid (20 μM) and A23187 (5 μM). Products were chromatographed by RP-HPLC (as in FIG. 1B) and the region containing 15-HETE was collected, extracted with chloroform and treated with diazomethane. Chiral analysis was performed with a Bakerbond DNBPG (see Methods for details). Results are representative of two separate experiments showing similar results.
In incubations involving permeabilized A549 cells (prepared by a rapid freeze-thaw cycle), IL-1β-treated (1 ng/ml, 24 h) A549 cells (1.5×10^6 cells/ml) were pretreated for 20 min with either vehicle (0.1% EtOH), ASA (500 (M; used throughout), 5 (M 17-ODYA, an inhibitor of cytochrome P450, (Muerhoff A. S., et al. (1989) Prostaglandin and fatty acid ω and (ω-1)-oxidation in rabbit lung: acetylenic fatty acid mechanism-based inactivators as specific inhibitors. J Biol.Chem. 244: 749-756.), or […] Rev 5901 isomer, a 5-LO inhibitor, subjected to two cycles of rapid freezing in a dry ice-acetone bath and thawing to room temperature (full cycle <20 min), and incubated with arachidonic acid ([…] for 20 min at 37° C. in 4 ml of DPBS^2+. In experiments involving radiolabeled arachidonic acid, incubations were initiated with the addition of [^3H]-arachidonic acid (0.25 (Ci/ml) plus unlabeled arachidonic acid ([…] for 20 min at 37° C.
For time-course experiments involving the generation of 15-HETE from endogenous sources (see FIG. 2B), intact A549 cells were exposed to IL-1β (1 ng/ml) for up to 48 h and then treated with vehicle (containing 0.1% EtOH) or ASA for 20 min followed by addition of ionophore A23187 (5 μM) in 4 ml of HBSS for 30 min at 37° C.
The monohydroxy eicosanoids (i. e. 5-, 12- and 15-HETE) from A549 cells were analyzed using a Ultrasphere-ODS column (5 μm, 4.6 mm×25 cm) (Beckman Instruments, Fullerton, Calif.) was eluted with MeOH/H2O/acetic acid (65:35:0.01; v/v/v) as phase one (t0-20 min), and a linear gradient with MeOH/acetic acid (99.9:0.1, v/v) as phase two (20-45 min) at a flow rate of 1.0 ml/min. The R- and S-enantiomers of 15-HETE were resolved and identified using a chiral HPLC system similar to that reported by Hawkins et al. (1988). […] When indicated, generation of 15-HETE from endogenous sources was monitored by radioimmunoassay (RIA). […]

Assay [1] has as its system A549 cell-PMN costimulation. The assay is described as follows: Eicosanoid formation in A549 cell-PMN coincubations. Type of assay: cell-based, human. Particulars: A549 cells exposed 20 min before addition of PMN. How it is done: In coincubation experiments, confluent A549 cells were exposed to IL-1β (1 ng/ml, 24 h), washed in HBSS and treated with vehicle alone or ASA for 20 min and arachidonic acid ([…] for 60 seconds at 37° C. Coincubations were performed by adding PMN to A549 cell monolayers followed by costimulation with ionophore A23187 (5 μM) in 4 ml of HBSS for 30 min at 37° C.
For analysis of LXs (including LXs and 15-epi-LXs) from A549 cell-PMN, coincubations were carried out using either a Waters (Bondapak C18 ([…]) column eluted with an isocratic mobile phase MeOH/H2O/acetic acid (60:40:0.01; v/v/v) with a flow rate of 0.6 ml/min or an Altex Ultrasphere ODS column (5 μm, 10 ×25 cm) eluted with MeOH/H2O/acetic acid (65:35:0.01; v/v/v) at a flow of 3 ml/min. Peptidoleukotrienes (LTC4 and LTD4) eluted in the MeOH fractions from Sep-Pak cartridge extractions were resolved with a Beckman Ultrasphere-ODS column eluted with MeOH/H2O/acetic acid (65:35:0.01; v/v/v), pH 5.7, at 1 ml/min. […] The material beneath peaks absorbing at 300 nm were individually collected after RP-HPLC and analyzed by gas chromatography-mass spectrometry (GC-MS) employing a Hewlett-Packard 5890 GC series II equipped with a 5971A mass-selective quadrapole detector as in Clària, J. and Serhan, C. […]

The next assay relates to HUVEC. Kind of assay: 3H-LTB4 binding to HUVEC. Also on record: species or system human. Particulars: 3H-LTB4, n=3. How it is done: Cell cultures and differentiation. HL-60 cells were seeded in RPMI medium supplemented with 100 U/ml penicillin, 100 μg/ml streptomycin, and 10% fetal calf serum (Hyclone, Logan, Utah), incubated at 37° C. with 5% CO2 atmosphere in 250 ml flasks. Individual flasks containing ˜[…] next received dimethyl sulfoxide (DMSO) (1.12% v/v, 120 h) or retinoic acid (RA) (1 μM, 120 h) or phorbol myristate acetate (PMA) (20 nM, 48 h). Before performing binding assays, cells were washed twice in phosphate buffered saline (PBS), Ca^2+- and Mg^2+-free, enumerated and suspended at 20×10^6 cells/ml in Tris buffer (10 mM), pH 7.4 (Fiore, S. et al.(1992) J. Biol. Chem. 267:16168). Nitro blue tetrazolium reduction was performed to monitor induction of polymorphonuclear phenotype as in (Imaizumi, M. and Breitman, T. R. (1986) Blood 67:1273), and cell adherence was determined for induction of macrophage-like phenotype (Collins, S. J. (1987) Blood 70:1273). […]
Ligand binding. ^3H-LXA4 and ^3H-LTB4 binding was performed essentially as in Fiore, S. et al.(1992) J. Biol. Chem. 267:16168. […] The incubations were rapidly centrifuged (60 sec, 12,000 g) on silicon oil (d=1.028), and cell-associated radioactivity was determined by liquid scintillation counting (Wallac 1409, Pharmacia, Piscataway, N.J.). […]

Assay [2] addresses T2, LXA4 specific binding sites of differentiated HL-60 cells (Homo sapiens, UniProt P25090).
T2 construct: endogenous in cells; host or cells: HL-60 cells differentiated with DMSO, retinoic acid or PMA; intact cells
T2 sequence (P25090 1-351): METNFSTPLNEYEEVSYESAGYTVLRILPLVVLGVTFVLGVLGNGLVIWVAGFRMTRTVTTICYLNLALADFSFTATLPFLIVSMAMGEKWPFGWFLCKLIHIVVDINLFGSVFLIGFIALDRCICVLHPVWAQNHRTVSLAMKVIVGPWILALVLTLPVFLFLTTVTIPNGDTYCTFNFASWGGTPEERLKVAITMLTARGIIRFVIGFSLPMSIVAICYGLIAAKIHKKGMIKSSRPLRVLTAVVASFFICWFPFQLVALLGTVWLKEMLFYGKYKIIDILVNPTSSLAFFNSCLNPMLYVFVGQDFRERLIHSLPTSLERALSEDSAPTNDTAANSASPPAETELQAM
The assay is described as follows: 3H-LXA4 specific binding to differentiated HL-60 cells. Particulars: competition, competitor 300 nM where printed.

Setting [3] is: pretreatment 20 min, 37° C., chiral HPLC.

Molecules are shown by their SMILES.

For the compound `CCCCC[C@H](O)/C=C/C=C\C/C=C\C/C=C\CCCC(=O)O` [15-HETE, 15-hydroxyeicosatetraenoic acid], the “substrate efficiency compared to PGE2” value at 15-PGDH is listed as 92%.

For `CC(=O)Oc1ccccc1C(=O)O` [ASA, acetylsalicylic acid], the “effect on formation of 15-HETE” value with A549 cells (permeabilized IL-1β-treated A549 cells, arachidonic acid 20 μM) is reported as “marked increase”. In the assay on A549 cells (setting [3]), the “formation of 15S-HETE” value is given as “remained unaltered” and the “increase in the amounts of 15R-HETE” value worked out at 3 fold. In addition, in assay [1], the “formation of LXs” value is on record as “increase in the formation of LXs” and the “formation of pLTs (LTC4 plus LTD4)” value is “decrease in pLTs”.

As for `CCCCC/C=C\C[C@@H](O)/C=C/C=C/C=C\[C@@H](O)CCCC(=O)O` [LTB4, leukotriene B4], the “specific binding to HUVEC” value in the assay with HUVEC is “did not specifically bind”. In addition, the “displacement of 3H-LXA4 specific binding” value in assay [2] is “Neither LXB4, LTB4, nor trihydroxyheptanoic acid (methyl ester) (300 nM) were able to displace”.
